Values of other authors as cited in patent US20200215022A1, “NOVEL CANNABINOID COMPOSITIONS AND METHODS OF TREATING PEDIATRIC EPILEPSY” (TILRAY, INC., priority 2016, published 2020).

How the values were obtained:
[1] = target: CB2 (Homo sapiens, UniProt P34972); details: Pacher et al., 2006
[2] = tested on: sodium channel; details: human and animal models
[3] = target: T1, CYP2B6 (Homo sapiens, UniProt P20813)
T1 sequence (P20813 1-491): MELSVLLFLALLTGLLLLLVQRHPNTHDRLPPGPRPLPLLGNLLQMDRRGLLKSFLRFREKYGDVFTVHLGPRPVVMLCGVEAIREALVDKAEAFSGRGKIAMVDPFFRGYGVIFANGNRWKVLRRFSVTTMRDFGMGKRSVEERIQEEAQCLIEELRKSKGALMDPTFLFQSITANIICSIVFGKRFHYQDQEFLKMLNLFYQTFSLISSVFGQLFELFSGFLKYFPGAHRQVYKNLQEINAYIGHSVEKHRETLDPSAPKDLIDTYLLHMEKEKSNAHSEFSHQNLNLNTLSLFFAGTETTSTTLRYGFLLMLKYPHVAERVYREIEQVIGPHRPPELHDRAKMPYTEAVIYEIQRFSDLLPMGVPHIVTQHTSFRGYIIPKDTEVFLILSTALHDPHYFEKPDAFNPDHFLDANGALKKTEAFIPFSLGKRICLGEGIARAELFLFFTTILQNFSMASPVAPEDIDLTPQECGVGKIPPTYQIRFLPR

[4] = target: T2, CYP2C8 (Homo sapiens, UniProt P10632)
T2 sequence (P10632 1-490): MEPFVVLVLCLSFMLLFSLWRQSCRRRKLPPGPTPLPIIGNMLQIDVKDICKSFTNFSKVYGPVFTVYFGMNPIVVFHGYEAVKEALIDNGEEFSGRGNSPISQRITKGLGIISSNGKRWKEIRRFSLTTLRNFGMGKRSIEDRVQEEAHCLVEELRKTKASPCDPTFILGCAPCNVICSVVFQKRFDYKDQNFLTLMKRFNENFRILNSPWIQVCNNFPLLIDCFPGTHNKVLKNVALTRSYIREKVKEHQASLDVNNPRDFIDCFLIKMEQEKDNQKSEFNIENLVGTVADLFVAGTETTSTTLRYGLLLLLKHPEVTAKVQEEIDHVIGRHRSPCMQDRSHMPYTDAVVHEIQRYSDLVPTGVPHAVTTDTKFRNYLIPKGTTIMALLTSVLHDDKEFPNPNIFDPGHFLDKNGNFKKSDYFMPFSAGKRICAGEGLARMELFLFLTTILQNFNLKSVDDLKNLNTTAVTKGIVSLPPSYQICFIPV

[5] = target: CYP2C9 (Homo sapiens, UniProt P11712)
[6] = target: CYP2C19 (Homo sapiens, UniProt P33261)
[7] = target: CYP3A4 (Homo sapiens, UniProt P08684)
[8] = in vivo

Sequence of CB2 (P34972 whole entry, species assumed): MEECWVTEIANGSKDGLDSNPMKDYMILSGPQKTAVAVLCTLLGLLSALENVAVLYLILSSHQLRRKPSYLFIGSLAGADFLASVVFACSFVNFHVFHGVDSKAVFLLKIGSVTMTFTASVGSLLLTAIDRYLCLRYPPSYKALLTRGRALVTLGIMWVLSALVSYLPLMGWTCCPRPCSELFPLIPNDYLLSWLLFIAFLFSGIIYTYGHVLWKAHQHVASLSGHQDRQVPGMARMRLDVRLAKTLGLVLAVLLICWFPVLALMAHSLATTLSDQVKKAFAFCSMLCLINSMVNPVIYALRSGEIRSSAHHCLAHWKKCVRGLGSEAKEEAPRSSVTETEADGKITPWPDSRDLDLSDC
Sequence of CYP3A4 (P08684 whole entry): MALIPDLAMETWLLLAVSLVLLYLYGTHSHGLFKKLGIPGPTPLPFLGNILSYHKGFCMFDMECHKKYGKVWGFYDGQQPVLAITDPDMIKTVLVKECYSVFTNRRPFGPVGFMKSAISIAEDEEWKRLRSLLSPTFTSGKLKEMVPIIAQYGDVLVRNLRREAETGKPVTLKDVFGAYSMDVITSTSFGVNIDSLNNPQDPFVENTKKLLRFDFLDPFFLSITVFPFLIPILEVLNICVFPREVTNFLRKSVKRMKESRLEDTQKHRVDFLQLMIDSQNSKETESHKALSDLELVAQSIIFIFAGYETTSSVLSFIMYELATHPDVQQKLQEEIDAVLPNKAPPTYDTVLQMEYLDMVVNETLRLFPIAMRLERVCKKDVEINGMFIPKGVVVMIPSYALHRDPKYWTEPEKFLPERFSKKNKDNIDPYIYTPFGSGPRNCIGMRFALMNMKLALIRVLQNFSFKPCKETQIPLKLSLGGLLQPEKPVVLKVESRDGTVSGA
Sequence of CYP2C19 (P33261 whole entry): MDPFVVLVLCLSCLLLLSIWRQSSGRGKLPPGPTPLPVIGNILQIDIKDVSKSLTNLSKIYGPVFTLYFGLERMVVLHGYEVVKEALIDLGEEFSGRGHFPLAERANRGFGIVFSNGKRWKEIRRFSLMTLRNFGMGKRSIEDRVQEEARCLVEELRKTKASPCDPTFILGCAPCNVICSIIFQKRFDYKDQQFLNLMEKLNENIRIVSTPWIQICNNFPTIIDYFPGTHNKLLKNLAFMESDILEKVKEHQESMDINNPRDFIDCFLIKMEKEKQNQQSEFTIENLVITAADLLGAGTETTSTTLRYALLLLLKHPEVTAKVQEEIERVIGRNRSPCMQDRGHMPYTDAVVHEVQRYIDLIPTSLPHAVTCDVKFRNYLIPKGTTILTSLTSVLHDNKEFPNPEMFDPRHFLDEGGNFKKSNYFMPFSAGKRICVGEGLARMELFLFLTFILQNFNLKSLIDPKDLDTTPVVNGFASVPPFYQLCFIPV
Sequence of CYP2C9 (P11712 whole entry): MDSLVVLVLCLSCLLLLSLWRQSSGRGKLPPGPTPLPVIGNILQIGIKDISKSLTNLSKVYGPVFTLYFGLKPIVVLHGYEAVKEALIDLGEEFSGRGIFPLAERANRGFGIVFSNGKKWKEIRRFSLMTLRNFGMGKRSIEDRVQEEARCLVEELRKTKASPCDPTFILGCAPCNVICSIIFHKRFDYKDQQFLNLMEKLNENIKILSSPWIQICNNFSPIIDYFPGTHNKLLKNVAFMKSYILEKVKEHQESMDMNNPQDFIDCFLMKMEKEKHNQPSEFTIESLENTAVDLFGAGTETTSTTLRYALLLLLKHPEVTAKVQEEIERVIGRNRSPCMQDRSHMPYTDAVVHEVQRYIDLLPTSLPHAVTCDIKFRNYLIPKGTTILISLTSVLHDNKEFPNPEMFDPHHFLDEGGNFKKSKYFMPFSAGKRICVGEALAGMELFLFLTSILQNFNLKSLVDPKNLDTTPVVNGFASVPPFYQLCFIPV

C=C(C)[C@@H]1CCC(C)=C[C@H]1c1c(O)cc(CCCCC)cc1O [CBD, cannabidiol]
Affinity for cannabinoid receptor CB2 [1]: does not appear to have a great affinity
Sodium channel block [2]: potent sodium channel blockers
Inhibition of CYP2B6 [3]: potent inhibitor
Inhibition of CYP2C8 [4]: potent inhibitor
Inhibition of CYP2C9 [5]: potent inhibitor
Inhibition of CYP2C19 [6]: potent inhibitor
Inhibition of CYP3A4 [7]: potent inhibitor
Lipid solubility: highly lipid soluble
Route of excretion [8]: excreted in the urine and feces
Time CBD levels are detected post administration [8]: up to 8 hours

CCCCCc1cc(O)c(C/C=C(\C)CCC=C(C)C)c(O)c1 [CBG, cannabigerol]
Sodium channel block [2]: potent sodium channel blockers
